Results reported in article PMC7618454, “Interleukin-1 receptor-associated kinase 4 (IRAK4) is a critical regulator of inflammatory signalling through toll-like receptors 4 and 7/8 in murine and human lungs” (British journal of pharmacology, 2024).

Legend:
[1] = molecular target: T1, interleukin-1 receptor-associated kinase 4 (IRAK4) (Mus musculus, UniProt Q8R4K2); assay: IMAP fluorescence polarization kinase assay, […] ATP; format: biochemical
T1 construct: kinase domain, aa 153–459, N-terminal His6-tagged
T1 sequence (Q8R4K2 153-459): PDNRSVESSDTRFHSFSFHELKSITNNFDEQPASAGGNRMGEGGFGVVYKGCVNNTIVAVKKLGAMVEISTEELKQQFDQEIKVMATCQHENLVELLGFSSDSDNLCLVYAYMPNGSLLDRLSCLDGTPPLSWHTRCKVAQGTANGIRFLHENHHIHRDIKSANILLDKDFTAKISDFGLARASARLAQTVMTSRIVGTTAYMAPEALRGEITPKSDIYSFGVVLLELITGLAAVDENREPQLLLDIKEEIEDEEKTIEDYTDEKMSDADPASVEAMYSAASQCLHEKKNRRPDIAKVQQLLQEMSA

[2] = molecular target: T2, interleukin-1 receptor-associated kinase 4 (IRAK4) (Homo sapiens, UniProt Q9NWZ3); assay: IMAP fluorescence polarization kinase assay, […] ATP; format: biochemical
T2 construct: kinase domain, aa 153–460, N-terminal His6-tagged
T2 sequence (Q9NWZ3 153-460): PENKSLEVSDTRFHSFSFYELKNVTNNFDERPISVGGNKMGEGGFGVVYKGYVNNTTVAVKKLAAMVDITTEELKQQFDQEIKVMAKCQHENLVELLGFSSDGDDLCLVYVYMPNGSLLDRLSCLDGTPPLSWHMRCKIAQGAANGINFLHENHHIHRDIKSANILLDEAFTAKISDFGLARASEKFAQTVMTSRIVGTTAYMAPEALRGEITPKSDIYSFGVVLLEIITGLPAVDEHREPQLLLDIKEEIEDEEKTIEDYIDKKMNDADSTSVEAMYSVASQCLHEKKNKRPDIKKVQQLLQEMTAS

IC50 [1]: ~2 nM | IC50 [2]: ~2 nM
Substance: BI1543673
